Reference: US8524691B2, “Phosphonated rifamycins and uses thereof for the prevention and treatment of bone and joint infections” (The Medicines Company, priority 2008, dated 2013)
Values after ≈ are worked out from the molar mass of the structure shown. Like-named read-outs stand apart in the source and are kept apart here.

What was measured:
[1] = tested on: S. aureus ATCC 13709^A, Novobiocin and Rifampicin resistant variant; assay: Antibacterial susceptibility (MIC), NCCLS broth microdilution; type: cell-based; settings: for MIC: Staphylococcus aureus, ATCC13709, read-out: Minimum inhibitory concentration, S. aureus ATCC 13709^A
Procedure: (§1) Susceptibility of S. aureus strains to the known antibiotics and synthesized compounds was determined by following the guidelines set by NCCLS (M26-A). Compounds were diluted two-fold serially in DMSO and transferred to cation-adjusted Mueller Hinton broth (CAMHB; Becton Dickinson). 50 μL of compounds diluted in CAMHB was mixed with 100 μL of bacteria diluted in CAMHB in 96-well microtiter plates. The final concentration of micro-organisms in the assay was 5×10^5c.f.u. per mL and the final concentration of DMSO in the assay was 1.25%. Assays were set up in duplicate and incubated at 37° C. for 18 h. The lowest concentration of compound that inhibited visible growth was reported as the minimum inhibitory concentration (MIC).

[2] = tested on: S. aureus ATCC 29213; assay: as above; type: cell-based; settings: for MIC: Staphylococcus aureus, ATCC29213, 18 h, read-out: Minimum inhibitory concentration, S. aureus ATCC 29213; for Minimum inhibitory concentration, S. aureus ATCC 29213: CAMHB, 37° C., 18 h
Procedure: as §1

[3] = tested on: S. aureus ATCC 13709; assay: microbe, parasite or virus in culture; type: cell-based; settings: for MIC: Staphylococcus aureus, ATCC13709, 18 h, read-out: Minimum inhibitory concentration, S. aureus ATCC 13709; for Minimum inhibitory concentration, S. aureus ATCC 13709: CAMHB, 37° C., 18 h
Procedure: as §1

[4] = tested on: S. aureus ATCC 13709; assay: microbe, parasite or virus in culture; type: cell-based; settings: for Serum dependence of antibacterial activity (in words): MIC with versus without serum; for MIC: Staphylococcus aureus, ATCC13709, 18 h
Procedure: as §1
Susceptibility testing experiments were also carried out in the presence of serum. These experiments were carried out similar to the susceptibility testing with the following modifications. 75 μL of compounds diluted in CAMHB was mixed with 75 μL of bacteria diluted in 100% serum from any given source (commercial pooled mouse serum (MS) and human serum (HS), Equitech-Bio Inc.) or diluted in 8% purified human serum albumin (HSA) (Calbiochem). The final concentration of animal serum in the assay was 50% and the final concentration of purified human serum albumin in the assay was 4%; the concentrations of all other components were identical to those described for susceptibility testing.

[5] = tested on: Novobiocin resistant mutant strain of S. aureus ATCC 13709; assay: Prophylactic efficacy in rat model of S. aureus bone infection; type: in vivo; settings: for Measured bacterial titer, test compound: 20 mg/kg parent drug equivalent, single intravenous bolus 1 day prior to infection, tibia 24 h postinfection
Procedure: To determine the in vivo activity of bisphosphonated prodrugs of Rifamycin derived antibacterials in comparison to their non-bisphosphonated parents, compounds 18, 19, 48a, 59, 66, 89, 95, 102, 110, 142b and 164 and their parent drug rifabutin were used as prophylactic therapeutics in an animal model of infection. Specifically, a spontaneous Novobiocin resistant mutant strain of S. aureus ATCC 13709 (a clinical osteomyelitis isolate), was grown overnight at 37° C. in brain heart infusion broth (BHIB). After 16 h of growth, cells were subcultured into fresh BHIB and incubated for 4 to 5 h at 37° C. The cells were washed twice with phosphate-buffered saline (PBS) and resuspended in BHIB supplemented with 10% (vol./vol.) fetal bovine serum at a density of approximately 10^10 colony forming units (CFU)/ml (based upon turbidimetry). The suspension was aliquoted and a portion was used to check the CFU count. The culture was stored frozen (−80° C.) and was used without subculture. For use as an inoculum the culture was thawed, diluted in PBS and kept in an ice bath until it was used.
Animals were infected as described by O'Reilly et al. (Antimicrobial Agents and Chemotherapy (1992), 36(12): 2693-97) to generate the bone infection. Female CD rats (age, 57 to 70 days; n=5/group; Charles River, St-Constant, Canada) were anaesthetized by isofluorane before and during the surgery. Following complete induction of anesthesia, the rat was placed ventral side up and hair was shaved from the surgical site. The skin over the leg was cleaned and disinfected (proviodine-ethanol 70%). A longitudinal incision below the knee joint was made in the sagital plane. The incision was made over the bone below the “knee joint” (tibia head or condyle) but not completely extending to the ankle. A high speed drill fitted with a 2 mm bulb bit was used to drill a hole into the medullar cavity of the tibia. Rats were injected intra-tibially with 0.05 ml 5% sodium morrhuate (sclerosing agent) and then with 0.05 ml of S. aureus suspension (ca. 2×10^7 CFU/rat). The hole was sealed by applying a small amount of dry dental cement which immediately absorbs fluids and adheres to the site. The wound was closed using 3 metal skin clips. Moxifloxacin (as a positive control) was injected once at 10 mg/kg intravenously 1 h postinfection in saline, while the Rifabutin derived prodrugs (prepared in 0.9% saline) were injected at the dose indicated in Table 3 as a single intravenous bolus at different time points prior to the infection.
Infected rats were sacrificed by CO2 asphyxiation 24 h postinfection to monitor the bacterial CFU count. Infected tibiae were removed, dissected free of soft tissue, and weighed. The bones were ground, 50 mg of charcoal were added and the powder was resuspended in 5 ml 0.9% NaCl, serially diluted and processed for quantitative cultures. Treatment efficacy was measured in terms of Log viable bacteria (Log CFU per gram of bone). […] The limit of detection is 2 Log CFU. Statistical comparisons of viable bacterial counts for the different treated and untreated groups were performed with the Dunnett's multiple-comparison test. Differences were considered significant when the P value was <0.05 when comparing treated infected animals to the untreated infected ones. The doses used, the amount of time separating the treatment from the time of infection and the treatment outcomes are shown in Table 3.

[6] = type: in vitro ADME; settings: for % Conversion (prodrug converted to parent drug after binding to bone): 24 h incubation, 37° C.
Procedure: Amounts of parent drug “regenerated” from the phosphonated prodrug were measured as follows. Washed bone powder-bound prodrugs from the above experiment were resuspended in 400 μL PBS+2% DMSO or in 400 μL 50% (v/v in PBS+2% DMSO) human or rat serum. The suspension was incubated overnight at 37° C., centrifuged at 13,000 rpm for 2 min and the supernatant was recovered. The amount of regenerated parent drug in the supernatant was determined by measurements using the microbiological assay that was previously described for the prodrugs themselves. The amount of prodrug was deduced from standard curves of known amounts of parent drug that were used as reference for each experiment. The amount of regenerated drug assessed by this bioassay was corroborated by MIC determination. The percentage of drug regenerated in PBS or serum after the overnight incubation (Table 2) was deduced from the difference between the amount of bound prodrug and the amount of regenerated drug (not shown).

[7] = read-out: Minimum inhibitory concentration, ATCC 13709 + 50% Human Serum
[8] = read-out: Minimum inhibitory concentration, ATCC 13709 + 50% Mouse Serum
[9] = read-out: Minimum inhibitory concentration, ATCC 13709 + 50% Rat Serum

SMILES | MIC [1] [µg/mL] | MIC [2] [µg/mL] | MIC [3] [µg/mL] | Serum dependence of antibacterial activity (in words) [4] | MIC [4, 7] [µg/mL] | MIC [4, 8] [µg/mL] | MIC [4, 9] [µg/mL] | Measured bacterial titer, test compound [5] | Minimum inhibitory concentration, S. aureus ATCC 13709^A [1] [µg/mL] | Minimum inhibitory concentration, S. aureus ATCC 29213 [2] [µg/mL] | Minimum inhibitory concentration, S. aureus ATCC 13709 [3] [µg/mL] | Minimum inhibitory concentration, ATCC 13709 + 50% Human Serum [4] [µg/mL] | Minimum inhibitory concentration, ATCC 13709 + 50% Mouse Serum [4] [µg/mL] | Minimum inhibitory concentration, ATCC 13709 + 50% Rat Serum [4] [µg/mL] | Prophylactic activity in rat bone infection model (in words) ([5]; 20 mg/kg, 1 day or 5 days prior to infection) | Antibacterial activity (in words, from Table 1) ([3]; S. aureus MIC) | Release of parent rifabutin from bone powder-bound prodrug (in words) [6] | % Conversion (prodrug converted to parent drug after binding to bone) ([6]; 50% Heat Inactivated Rat Serum) [%] | % Conversion (prodrug converted to parent drug after binding to bone) ([6]; 50% Rat Serum) [%] | % Conversion (prodrug converted to parent drug after binding to bone) ([6]; PBS) [%]
CO[C@H]1/C=C/O[C@@]2(C)Oc3c(C)c(O)c4c(c3C2=O)C2=NC3(CCN(CC(C)C)CC3)NC2=C(NC(=O)/C(C)=C\C=C\[C@H](C)[C@H](OC(=O)CN(CCCCC(P(=O)(O)O)P(=O)(O)O)CCNC(=O)OCc2ccc(OC(C)=O)cc2)[C@@H](C)[C@@H](O)[C@@H](C)[C@H](OC(C)=O)[C@@H]1C)C4=O [Compound 66] | > 128 | 4 (≈ 2.92 µM) | 4 (≈ 2.92 µM) | significant increase in antibacterial activity in serum | 4 | 0.125 | 0.008 | 1.97 ± 0.05 Log CFU/g of bone | – | – | – | – | – | – | – | – | – | – | – | –
CCC(=O)OCOC(=O)N(CCCC(P(=O)(O)O)P(=O)(O)O)CCOC(=O)N1C2=C3NC(=O)/C(C)=C\C=C\[C@H](C)[C@H](O)[C@@H](C)[C@@H](O)[C@@H](C)[C@H](OC(C)=O)[C@H](C)[C@@H](OC)/C=C/O[C@@]4(C)Oc5c(C)c(O)c(c(c5C4=O)C2=NC12CCN(CC(C)C)CC2)C3=O [Compound 164] | – | – | – | significant increase in antibacterial activity in serum | – | – | – | 5.48 ± 0.64 Log CFU/g of bone | >128 | 4 (≈ 3.12 µM) | 4 (≈ 3.12 µM) | 8 | 2 | 0.25 | ineffective at 1 day | – | – | – | – | –
CCC(=O)OCOC(=O)N[C@@H](CCC(=O)Nc1ccc(CC(P(=O)(O)O)P(=O)(O)O)cc1)C(=O)N(C)CC(=O)O[C@@H]1[C@@H](C)[C@@H](O)[C@@H](C)[C@H](OC(C)=O)[C@H](C)[C@@H](OC)/C=C/O[C@@]2(C)Oc3c(C)c(O)c4c(c3C2=O)C2=NC3(CCN(CC(C)C)CC3)NC2=C(NC(=O)/C(C)=C\C=C\[C@@H]1C)C4=O.N.N [Compound 110] | – | – | – | significant increase in antibacterial activity in serum | – | – | – | 1.94 ± 0.04 Log CFU/g of bone | >128 | 8 | 8 | 8 | 0.125 | 0.0156 | – | – | – | – | – | –
CCC(=O)OCOC(=O)NCC(=O)OCCN(CCCCC(P(=O)(O)O)P(=O)(O)O)CC(=O)O[C@@H]1[C@@H](C)[C@@H](O)[C@@H](C)[C@H](OC(C)=O)[C@H](C)[C@@H](OC)/C=C/O[C@@]2(C)Oc3c(C)c(O)c4c(c3C2=O)C2=NC3(CCN(CC(C)C)CC3)NC2=C(NC(=O)/C(C)=C\C=C\[C@@H]1C)C4=O [Compound 59] | > 128 | 0.125 (≈ 0.0916 µM) | 0.125 (≈ 0.0916 µM) | – | 0.0625 | 0.0312 | 0.008 | 1.95 ± 0.06 Log CFU/g of bone | – | – | – | – | – | – | – | very low MICs whether in the absence or in the presence of serum | – | – | – | –
CO[C@H]1/C=C/O[C@@]2(C)Oc3c(C)c(O)c4c(c3C2=O)C2=NC3(CCN(CC(C)C)CC3)NC2=C(NC(=O)/C(C)=C\C=C\[C@H](C)[C@H](OC(=O)CN(C)CCOC(=O)CCC(P(=O)(O)O)P(=O)(O)O)[C@@H](C)[C@@H](O)[C@@H](C)[C@H](OC(C)=O)[C@@H]1C)C4=O [Compound 36] | – | – | – | significant increase in antibacterial activity in serum | – | – | – | – | >128 | 2 (≈ 1.68 µM) | 2 (≈ 1.68 µM) | 2 | 1 | 0.0625 | – | – | release significant amounts of the parent rifabutin once bound to bone powder, regardless of the presence of serum | 0.07 | 0.07 | 0.07
